Test results: US11820766B2, “Monoacylglycerol lipase modulators” (Janssen Pharmaceutica NV, priority 2018, dated 2023)

Target: T1, human MGL from HeLa cells (Homo sapiens, UniProt Q99685)
T1 construct: combining endogenously expressed MGL from HeLa cells with test compounds; endogenous in cells; host or cells: HeLa cells / cell homogenates
T1 sequence (Q99685 1-303): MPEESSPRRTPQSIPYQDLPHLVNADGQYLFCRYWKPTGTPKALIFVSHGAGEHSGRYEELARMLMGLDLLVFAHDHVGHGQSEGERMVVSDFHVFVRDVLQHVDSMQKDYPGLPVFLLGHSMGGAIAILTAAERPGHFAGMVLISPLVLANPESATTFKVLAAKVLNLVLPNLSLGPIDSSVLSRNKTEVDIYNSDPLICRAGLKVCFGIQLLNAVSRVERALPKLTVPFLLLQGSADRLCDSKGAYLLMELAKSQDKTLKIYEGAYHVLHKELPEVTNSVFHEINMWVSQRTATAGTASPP
Test: In vitro MGL activity assay: [glycerol-1,3-3H]-oleyl glycerol cleavage by MGL from HeLa cells
Assay type: biochemical
Conditions: 300 nM [Glycerol-1,3-3H]-oleyl glycerol, one hour
Source text: MGL is the predominant hydrolase in HeLa cells/cell homogenates.

IC50 | Compound
25.4 nM | C[C@H]1c2nn(C)c(-c3cc(F)c(F)c(F)c3)c2CCN1C(=O)c1cnn(C)c1C1CCC1 [Example 333, (5-Cyclobutyl-1-methyl-pyrazol-4-yl)-[(7S)-2,7-dimethyl-3-(3,4,5-trifluorophenyl)-5,7-dihydro-4H-pyrazolo[3,4-c]pyridin-6-yl]methanone]
2790 nM | C[C@H]1c2nn(C)c(-c3cc(F)c(F)c(F)c3)c2CCN1C(=O)c1cnn(C)c1C1(C)CC1 [Example 334, [(7S)-2,7-Dimethyl-3-(3,4,5-trifluorophenyl)-5,7-dihydro-4H-pyrazolo[3,4-c]pyridin-6-yl]-[1-methyl-5-(1-methylcyclopropyl)pyrazol-4-yl]methanone]

Same assay, conditions: 300 nM [Glycerol-1,3-3H]-oleyl glycerol, one hour incubation

Compound | IC50
COc1cnc(C(=O)N2CCc3c(nn(C)c3-c3cc(F)c(F)c(F)c3)[C@@H]2C)cn1 [Example 326, [(7S)-2,7-Dimethyl-3-(3,4,5-trifluorophenyl)-5,7-dihydro-4H-pyrazolo[3,4-c]pyridin-6-yl]-(5-methoxypyrazin-2-yl)methanone] | 522 nM
CC(C)c1c(C(=O)N2CCc3c(nn(C)c3-c3cc(F)c(F)c(F)c3)[C@@H]2C)cnn1C [Example 328, [(7S)-2,7-Dimethyl-3-(3,4,5-trifluorophenyl)-5,7-dihydro-4H-pyrazolo[3,4-c]pyridin-6-yl]-(5-isopropyl-1-methyl-pyrazol-4-yl)methanone] | 1090 nM
C[C@H]1c2nn(C)c(-c3cc(F)c(F)c(F)c3)c2CCN1C(=O)c1cnn(C(F)(F)F)c1 [Example 329, [(7S)-2,7-Dimethyl-3-(3,4,5-trifluorophenyl)-5,7-dihydro-4H-pyrazolo[3,4-c]pyridin-6-yl]-[1-(trifluoromethyl)pyrazol-4-yl]methanone] | 5080 nM
C[C@H]1c2nn(C)c(-c3cc(F)c(F)c(F)c3)c2CCN1C(=O)c1cnn(C2CC2)c1 [Example 331, (1-Cyclopropylpyrazol-4-yl)-[(7S)-2,7-dimethyl-3-(3,4,5-trifluorophenyl)-5,7-dihydro-4H-pyrazolo[3,4-c]pyridin-6-yl]methanone] | 250 nM
C[C@H]1c2nn(C)c(-c3cc(F)c(F)c(F)c3)c2CCN1C(=O)c1cn(C2CC2)nc1C(F)(F)F [Example 332, [1-Cyclopropyl-3-(trifluoromethyl)pyrazol-4-yl]-[(7S)-2,7-dimethyl-3-(3,4,5-trifluorophenyl)-5,7-dihydro-4H-pyrazolo[3,4-c]pyridin-6-yl]methanone] | 143 nM

Further lines, results first:

IC50 | Compound
65.6 nM | C[C@H]1c2nn(C)c(-c3cc(F)c(F)c(F)c3)c2CCN1C(=O)c1ncn(-c2ccccn2)n1 [Example 323, [(7S)-2,7-Dimethyl-3-(3,4,5-trifluorophenyl)-5,7-dihydro-4H-pyrazolo[3,4-c]pyridin-6-yl]-[1-(2-pyridyl)-1,2,4-triazol-3-yl]methanone]
41.7 nM | C[C@H]1c2nn(C)c(-c3cc(F)c(F)c(F)c3)c2CCN1C(=O)c1ncn(-c2ncccc2F)n1 [Example 324, [(7S)-2,7-Dimethyl-3-(3,4,5-trifluorophenyl)-5,7-dihydro-4H-pyrazolo[3,4-c]pyridin-6-yl]-[1-(3-fluoro-2-pyridyl)-1,2,4-triazol-3-yl]methanone]
7.9 nM | C[C@H]1c2nn(C)c(-c3cc(F)c(F)c(F)c3)c2CCN1C(=O)c1ccc(-c2ccccn2)s1 [Example 325, [(7S)-2,7-Dimethyl-3-(3,4,5-trifluorophenyl)-5,7-dihydro-4H-pyrazolo[3,4-c]pyridin-6-yl]-[5-(2-pyridyl)-2-thienyl]methanone]
55.3 nM | Cc1cc(F)cc(-c2c3c(nn2C)[C@H](C)N(C(=O)c2cnn(C)c2C)CC3)c1 [Example 327, (1,5-Dimethylpyrazol-4-yl)-[(7S)-3-(3-fluoro-5-methyl-phenyl)-2,7-dimethyl-5,7-dihydro-4H-pyrazolo[3,4-c]pyridin-6-yl]methanone]
102 nM | C[C@H]1c2nn(C)c(-c3cc(F)c(F)c(F)c3)c2CCN1C(=O)c1cnn(C)c1C(F)F [Example 330, [5-(Difluoromethyl)-1-methyl-pyrazol-4-yl]-[(7S)-2,7-dimethyl-3-(3,4,5-trifluorophenyl)-5,7-dihydro-4H-pyrazolo[3,4-c]pyridin-6-yl]methanone]
